Our source for the EC50, Activity and ED50 values is ChEMBL document CHEMBL1153765, “Bioactive 5,6-dihydro-alpha-pyrone derivatives from Hyptis brevipes” (2009).

The structures appear in SMILES notation. Calls of active or inactive are those of the source. The calls are words filed in the database; no cut-off is given here. Some results are limits rather than exact numbers.

One assay has as its system MCF7. Put plainly: Cytotoxicity against human MCF7 cells. Type of assay: functional. As to conditions: read-out: ED50 (the source's name).
As to `CC(OC(=O)/C=C/c1ccc(O)cc1)C(=O)[C@H]1C[C@@H]1[C@H](O)[C@H]1CC=CC(=O)O1` (stereo not given in full), the EC50 is 3.6 µM.
In the case of `CC(=O)O[C@@H]([C@H]1C[C@@H]1C(=O)C(C)OC(=O)/C=C/c1ccc(O)cc1)[C@H]1CC=CC(=O)O1` (stereo not given in full) [BREVIPOLIDE A], the EC50 is over 10 µM.
Turning to `CC(=O)O[C@@H]([C@H]1C[C@@H]1C(=O)C(C)OC(=O)/C=C\c1ccc(O)cc1)[C@H]1CC=CC(=O)O1` (stereo not given in full) [BREVIPOLIDE B], the EC50 is 6.1 µM.
As to `CC(OC(=O)/C=C/c1ccc(O)c(O)c1)C(=O)[C@H]1C[C@@H]1[C@H](O)[C@H]1CC=CC(=O)O1` (stereo not given in full) [BREVIPOLIDE C], the EC50 was over 10 µM.
On to `CC(OC(=O)/C=C\c1ccc(O)c(O)c1)C(=O)[C@H]1C[C@@H]1[C@H](O)[C@H]1CC=CC(=O)O1` (stereo not given in full) [BREVIPOLIDE D], for which the EC50 is over 10 µM.
Same read-out and setting: next, `CC(=O)O[C@@H]([C@H]1C[C@@H]1C(=O)C(C)OC(=O)/C=C/c1ccc(O)c(O)c1)[C@H]1CC=CC(=O)O1` (stereo not given in full) [BREVIPOLIDE E]: over 10 µM; `CC(OC(=O)/C=C\c1ccc(O)cc1)C(=O)[C@H]1C[C@@H]1[C@H](O)[C@H]1CC=CC(=O)O1` (stereo not given in full) [BREVIPOLIDE F]: 6.7 µM.

The test system of another assay is HT-29. Put plainly: Cytotoxicity against human HT-29 cells. Type of assay: functional. As to conditions: read-out: ED50 (the source's name).
Regarding `CC(=O)O[C@@H]([C@H]1C[C@@H]1C(=O)C(C)OC(=O)/C=C/c1ccc(O)cc1)[C@H]1CC=CC(=O)O1` (stereo not given in full) [BREVIPOLIDE A], the EC50 turned out to be 5.8 µM.
`CC(=O)O[C@@H]([C@H]1C[C@@H]1C(=O)C(C)OC(=O)/C=C\c1ccc(O)cc1)[C@H]1CC=CC(=O)O1` (stereo not given in full) [BREVIPOLIDE B]: the EC50 was determined as 6.1 µM.

For a further assay, the system named is Lu1. Put plainly: Cytotoxicity against human Lu1 cells. It counts as functional, cell-based.
Settings: not given
In the case of `CC(OC(=O)/C=C/c1ccc(O)cc1)C(=O)[C@H]1C[C@@H]1[C@H](O)[C@H]1CC=CC(=O)O1` (stereo not given in full), the result was inactive.
On the same count and under the same terms, next, `COc1ccc(-c2oc3cc(OC)c(O)c(O)c3c(=O)c2OC)cc1O`: “inactive”; `CC(=O)O[C@@H]([C@H]1C[C@@H]1C(=O)C(C)OC(=O)/C=C/c1ccc(O)cc1)[C@H]1CC=CC(=O)O1` (stereo not given in full) [BREVIPOLIDE A]: “inactive”; `CC(=O)O[C@@H]([C@H]1C[C@@H]1C(=O)C(C)OC(=O)/C=C\c1ccc(O)cc1)[C@H]1CC=CC(=O)O1` (stereo not given in full) [BREVIPOLIDE B]: “inactive”.
On the same count and under the same terms, next, `CC(OC(=O)/C=C/c1ccc(O)c(O)c1)C(=O)[C@H]1C[C@@H]1[C@H](O)[C@H]1CC=CC(=O)O1` (stereo not given in full) [BREVIPOLIDE C]: “inactive”; `CC(OC(=O)/C=C\c1ccc(O)c(O)c1)C(=O)[C@H]1C[C@@H]1[C@H](O)[C@H]1CC=CC(=O)O1` (stereo not given in full) [BREVIPOLIDE D]: “inactive”; `CC(=O)O[C@@H]([C@H]1C[C@@H]1C(=O)C(C)OC(=O)/C=C/c1ccc(O)c(O)c1)[C@H]1CC=CC(=O)O1` (stereo not given in full) [BREVIPOLIDE E]: “inactive”.
`CC(OC(=O)/C=C\c1ccc(O)cc1)C(=O)[C@H]1C[C@@H]1[C@H](O)[C@H]1CC=CC(=O)O1` (stereo not given in full) [BREVIPOLIDE F]: the result was inactive.

In the next assay the test system is HL-60. Nature of the assay: Inhibition of chymotrypsin-like activity of proteasome in human HL60 cells assessed as free AMC level after 10 mins. Type of assay: subcellular.
Settings: not given
Regarding `COc1ccc(-c2oc3cc(OC)c(O)c(O)c3c(=O)c2OC)cc1O`, the ED50 stood at 17 µM.
As to `CC(OC(=O)/C=C/c1ccc(O)c(O)c1)C(=O)[C@H]1C[C@@H]1[C@H](O)[C@H]1CC=CC(=O)O1` (stereo not given in full) [BREVIPOLIDE C], the ED50 was 38 µM.
On the same count and under the same terms, next, `CC(OC(=O)/C=C\c1ccc(O)c(O)c1)C(=O)[C@H]1C[C@@H]1[C@H](O)[C@H]1CC=CC(=O)O1` (stereo not given in full) [BREVIPOLIDE D]: 44.5 µM.

The target of the next assay is T1, Nuclear factor NF-kappa-B p105 subunit (Homo sapiens) (UniProt P19838).
T1 sequence (whole entry): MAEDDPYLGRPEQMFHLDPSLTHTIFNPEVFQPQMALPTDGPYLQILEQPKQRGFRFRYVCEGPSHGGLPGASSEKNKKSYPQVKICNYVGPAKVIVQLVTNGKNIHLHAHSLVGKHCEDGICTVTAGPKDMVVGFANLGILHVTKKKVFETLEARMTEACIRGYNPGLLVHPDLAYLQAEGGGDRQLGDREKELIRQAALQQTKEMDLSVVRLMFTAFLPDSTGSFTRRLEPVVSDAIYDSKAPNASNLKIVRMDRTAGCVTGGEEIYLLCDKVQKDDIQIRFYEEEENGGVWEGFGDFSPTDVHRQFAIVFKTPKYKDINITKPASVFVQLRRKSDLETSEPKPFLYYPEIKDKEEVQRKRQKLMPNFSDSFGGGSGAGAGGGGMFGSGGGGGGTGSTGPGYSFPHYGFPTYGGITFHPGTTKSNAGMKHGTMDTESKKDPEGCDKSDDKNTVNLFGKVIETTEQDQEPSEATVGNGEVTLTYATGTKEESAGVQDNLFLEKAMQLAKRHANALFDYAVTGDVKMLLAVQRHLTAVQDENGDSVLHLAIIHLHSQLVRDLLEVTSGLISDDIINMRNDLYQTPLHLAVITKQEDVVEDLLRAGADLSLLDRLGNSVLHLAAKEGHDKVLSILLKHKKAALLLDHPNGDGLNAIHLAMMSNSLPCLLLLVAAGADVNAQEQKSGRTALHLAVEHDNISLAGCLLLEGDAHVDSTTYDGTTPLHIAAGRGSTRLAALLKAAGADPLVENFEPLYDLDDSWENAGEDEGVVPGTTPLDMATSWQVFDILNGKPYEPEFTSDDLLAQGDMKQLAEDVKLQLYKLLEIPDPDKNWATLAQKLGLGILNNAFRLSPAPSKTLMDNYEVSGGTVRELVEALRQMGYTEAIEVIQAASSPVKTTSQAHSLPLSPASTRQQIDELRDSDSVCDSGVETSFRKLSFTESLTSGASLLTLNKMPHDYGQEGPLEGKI
Nature of the assay: Inhibition of NF kappaB p50 subunit signaling pathway in human HeLa cells by biotinylated-ELISA.
Settings: not given
Type of assay: cell-based.
Turning to `CC(OC(=O)/C=C/c1ccc(O)cc1)C(=O)[C@H]1C[C@@H]1[C@H](O)[C@H]1CC=CC(=O)O1` (stereo not given in full), the ED50 was 15.3 µM.
`COc1ccc(-c2oc3cc(OC)c(O)c(O)c3c(=O)c2OC)cc1O` gave an ED50 of over 50 µM.
The same measure, in the same setting: next, `COc1ccc([C@@]23Oc4cc(OC)cc(OC)c4[C@]2(O)[C@H](O)[C@H](C(=O)N(C)C)[C@H]3c2ccccc2)cc1`: 2 µM; `CC(=O)O[C@@H]([C@H]1C[C@@H]1C(=O)C(C)OC(=O)/C=C/c1ccc(O)cc1)[C@H]1CC=CC(=O)O1` (stereo not given in full) [BREVIPOLIDE A]: over 50 µM; `CC(=O)O[C@@H]([C@H]1C[C@@H]1C(=O)C(C)OC(=O)/C=C\c1ccc(O)cc1)[C@H]1CC=CC(=O)O1` (stereo not given in full) [BREVIPOLIDE B]: over 50 µM.
`CC(OC(=O)/C=C/c1ccc(O)c(O)c1)C(=O)[C@H]1C[C@@H]1[C@H](O)[C@H]1CC=CC(=O)O1` (stereo not given in full) [BREVIPOLIDE C] gave an ED50 of over 50 µM.
On the same count and under the same terms, next, `CC(OC(=O)/C=C\c1ccc(O)c(O)c1)C(=O)[C@H]1C[C@@H]1[C@H](O)[C@H]1CC=CC(=O)O1` (stereo not given in full) [BREVIPOLIDE D]: over 50 µM; `CC(=O)O[C@@H]([C@H]1C[C@@H]1C(=O)C(C)OC(=O)/C=C/c1ccc(O)c(O)c1)[C@H]1CC=CC(=O)O1` (stereo not given in full) [BREVIPOLIDE E]: over 50 µM; `CC(OC(=O)/C=C\c1ccc(O)cc1)C(=O)[C@H]1C[C@@H]1[C@H](O)[C@H]1CC=CC(=O)O1` (stereo not given in full) [BREVIPOLIDE F]: over 50 µM.

Another assay relates to HT-29. Nature of the assay: Induction of apoptosis in human HT-29 cells assessed as change in mitochondrial transmembrane potential after 2 hrs by JC1 staining based fluorescence assay. It counts as functional. As to conditions: HT-29, 2 h, read-out: ED50 (the source's name).
For the compound `CC(OC(=O)/C=C/c1ccc(O)cc1)C(=O)[C@H]1C[C@@H]1[C@H](O)[C@H]1CC=CC(=O)O1` (stereo not given in full), the EC50 was found to be 0.075 µM.
